Measurements from doi:10.1101/2024.08.19.608619, “Discovery of potent SARS-CoV-2 nsp3 macrodomain inhibitors uncovers lack of translation to cellular antiviral response” (bioRxiv, 2024).
≈ marks a conversion by molar mass, not a printed value. Where “and” joins values, the source holds several entries; their conditions need not be identical. Identical values can stand only once. Like-named read-outs stand apart in the source and are kept apart here.

Assays:
[1] = In vitro kinetic solubility; conditions: In vitro kinetic solubility, ph 7.4
[2] = Permeability Papp (AB) MDR1/MDCKII; conditions: for papp_a_to_b_mean / perc_recovery_a_to_b_mean / papp_b_to_a_mean / efflux_ratio / perc_recovery_b_to_a_mean: In vitro MDR1-MDCKII permeability; for papp_a_to_b_mean: A to B; for perc_recovery_a_to_b_mean / perc_recovery_a_to_b_inhibitor_mean: recovery A to B; for papp_b_to_a_mean: B to A; for perc_recovery_b_to_a_mean / perc_recovery_b_to_a_inhibitor_mean: recovery B to A; for perc_recovery_a_to_b_inhibitor_mean / perc_recovery_b_to_a_inhibitor_mean: MDR1-MDCKII
in vitro = conditions: human, hela-ace2 cells, 50.0
[3] = tested on: SARS-CoV-2, isolate USA-WA1/2020; assay: microbe, parasite or virus in culture; format: cell-based; conditions: HeLa-ACE2 SARS-CoV-2 antiviral effect without P-gp inhibitor; for perc_max_measured: maximum measured response of dose series; for perc_min_measured: minimum measured response of dose series; for EC50: read-out: ec50; for EC90: read-out: ec90
[4] = Hepatic microsomal stability, HLM; format: in vitro ADME, human; conditions: In vitro human liver microsomal stability; for perc_remaining_no_cofactor: no cofactor
[5] = Hepatic microsomal stability, MLM; format: in vitro ADME
HeLa-ACE2 cells = conditions: for perc_max_measured: highest measured response of the dose series; for perc_min_measured: lowest measured response of the dose series
LogD = conditions: pH 7.4; In vitro LogD
[6] = In vitro mouse liver microsomal stability
[7] = In vitro mouse liver microsomal stability, no cofactor
[8] = protocol HeLa-ACE2 cytotoxicity

Structure (SMILES) | solubility_mean [1] [µM] | papp_a_to_b_mean ([2]; mean) [×10⁻⁶ cm/s] | CC50 at 24 h (in vitro) [µM] | perc_max_measured [3] [%] | perc_min_measured [3] [%] | EC50 [3] [µM] | EC90 [3] [µM] | clint [4] [µL/min/mg] | perc_remaining [4] [%] | t_half [4] [min] | perc_remaining_no_cofactor [4] [%] | clint [5, 6] [µL/min/mg] | perc_remaining [5, 6] [%] | t_half [5, 6] [min] | perc_remaining_no_cofactor [5, 7] [%] | CC50 (HeLa-ACE2 cells; HeLa-ACE2 cytotoxicity) [µM] | cc10 (HeLa-ACE2 cells; HeLa-ACE2 cytotoxicity) [µM] | perc_max_measured (HeLa-ACE2 cells; HeLa-ACE2 cytotoxicity) [%] | perc_min_measured (HeLa-ACE2 cells; HeLa-ACE2 cytotoxicity) [%] | logd (LogD) | further results
CC(C)[C@@H](Nc1ncnc2[nH]cc(C(=O)NC3CC3)c12)c1ccc2c(c1)S(=O)(=O)CCC2 [ASAP-0011207] | 216 (≈ 98 µg/mL) | 2.97 | > 20 | 103.36 | 37.723 | 14.4 | > 20 | 409.0 | 0.0 | 4.1 | 111.0 | 1740.0 | 0.0 | 1.0 | 102.0 | > 20 | > 20.0 | 109.458 | 97.44 | 3.2 | perc_recovery_a_to_b_mean ([2]; mean): 85.8%
CNCc1cc(-c2cc3c(N[C@H](c4ccc5c(c4)S(=O)(=O)CCC5)C(C)C)ncnc3[nH]2)co1 (single isomer, unassigned) [ASAP-0011169] | 358 (≈ 172 µg/mL) | 0.483 | > 20 | 94.818 | 27.713 | 11.1 | > 20 | 67.0 | 33.0 | 25.1 | 98.0 | 40.0 | 51.0 | 41.8 | 96.0 | > 20 | > 20.0 | 96.832 | 86.562 | 2.1 | perc_recovery_a_to_b_mean ([2]; mean): 63.8%
CNC(=O)c1cccc(-c2cc3c(N[C@H](c4ccc5c(c4)S(=O)(=O)CCC5)C(C)C)ncnc3[nH]2)c1 (single isomer, unassigned) [ASAP-0012338] | 13 (≈ 6.55 µg/mL) |  | > 20 | 112.086 | 84.591 | > 20 | > 20 | 746.0 | 0.0 | 2.2 | 99.0 | 197.0 | 4.0 | 8.5 | 106.0 |  |  |  |  | 3.8 | papp_a_to_b_mean ([2]; no inhibitor): 0.502 ×10⁻⁶ cm/s; perc_recovery_a_to_b_mean ([2]; no inhibitor): 61.5%; CC50 (HeLa-ACE2 cells; [8]): > 20 µM; cc10 (HeLa-ACE2 cells; [8]): > 20.0 µM; perc_max_measured (HeLa-ACE2 cells; [8]): 103.266%; perc_min_measured (HeLa-ACE2 cells; [8]): 80.243%
CC(C)[C@@H](Nc1ncnc2[nH]c(-c3cnn(CC(=O)N(C)C)c3)cc12)c1ccc2c(c1)S(=O)(=O)CCC2 (racemic) [ASAP-0008668] | 38 (≈ 19.8 µg/mL) | 0.67 | > 20 | 98.615 | 84.991 | > 20 | > 20 | 106.0 | 18.0 | 15.8 | 92.0 | 68.0 | 31.0 | 24.6 |  | > 20 | > 20.0 | 99.837 | 68.704 | 2.1 | perc_recovery_a_to_b_mean ([2]; mean): 85.0%; perc_remaining_no_cofactor ([5]; In vitro mouse liver microsomal stability; no cofactor): 92.0%
CC(C)[C@@H](Nc1ncnc2[nH]ccc12)c1ccc2c(c1)S(=O)(=O)CCC2 (single isomer, unassigned) [ASAP-0008676] | 386 (≈ 143 µg/mL) |  | > 20 | 117.108 | 66.698 | > 20 | > 20 | 21.0 | 69.0 | 78.6 | 99.0 | 55.0 | 41.0 | 30.4 | 117.0 | > 20 | > 20.0 | 101.14 | 87.391 | 2.5 | papp_b_to_a_mean ([2]; no inhibitor): 7.1 ×10⁻⁶ cm/s and 4.9 ×10⁻⁶ cm/s; efflux_ratio ([2]; no inhibitor): 47.7 and 54.4; perc_recovery_a_to_b_mean ([2]; no inhibitor): 75.4% and 74.2% and 91.3%; perc_recovery_b_to_a_mean ([2]; no inhibitor): 80.0% and 74.5%; perc_recovery_a_to_b_inhibitor_mean ([2]; with inhibitor Cyclosporin A): 72.2%; perc_recovery_a_to_b_inhibitor_mean ([2]; with inhibitor Verapamil): 82.4%; perc_recovery_b_to_a_inhibitor_mean ([2]; with inhibitor Cyclosporin A): 63.3%; perc_recovery_b_to_a_inhibitor_mean ([2]; with inhibitor Verapamil): 89.1%
CC(C)[C@H](Nc1ncnc2[nH]c(-c3cnn(C)c3C#N)cc12)c1ccc2c(c1)S(=O)(=O)CCC2 (single isomer, unassigned) [ASAP-0011144] | 22 (≈ 10.5 µg/mL) | 4.33 | > 20 | 129.006 | 5.734 | 6.21 | 7.19 | 935.0 | 0.0 | 1.8 | 101.0 | 311.0 | 1.0 | 5.4 | 90.0 | > 20 | > 20.0 | 100.779 | 87.504 | 3.3 | papp_a_to_b_mean ([2]; no inhibitor): 0.109 ×10⁻⁶ cm/s and 0.101 ×10⁻⁶ cm/s; papp_b_to_a_mean ([2]; no inhibitor): 6.0 ×10⁻⁶ cm/s and 7.2 ×10⁻⁶ cm/s; efflux_ratio ([2]; no inhibitor): 54.9 and 71.8; perc_recovery_a_to_b_mean ([2]; mean): 71.4%; perc_recovery_a_to_b_mean ([2]; no inhibitor): 95.4% and 83.3%; perc_recovery_b_to_a_mean ([2]; no inhibitor): 82.4% and 102.0%; perc_recovery_a_to_b_inhibitor_mean ([2]; with inhibitor Cyclosporin A): 78.3%; perc_recovery_a_to_b_inhibitor_mean ([2]; with inhibitor Verapamil): 84.6%; perc_recovery_b_to_a_inhibitor_mean ([2]; with inhibitor Cyclosporin A): 76.3%; perc_recovery_b_to_a_inhibitor_mean ([2]; with inhibitor Verapamil): 95.9%
CC(C)[C@@H](Nc1ncnc2[nH]c(-c3cnn(C)c3C#N)cc12)c1ccc2c(n1)NC(=O)CO2 (single isomer, unassigned) [ASAP-0011180] | 28 (≈ 12.4 µg/mL) | 9.64 | > 20 | 122.922 | 8.802 | 2.46 | 5.57 | 51.0 | 43.0 | 32.6 | 98.0 | 189.0 | 5.0 | 8.8 | 92.0 | > 20 | > 20.0 | 104.887 | 81.763 | 3.7 | perc_recovery_a_to_b_mean ([2]; mean): 84.8%
CC(C)[C@H](Nc1ncnc2[nH]c(-c3cnn(C)c3C#N)cc12)c1ccc2c(c1)NC(=O)CO2 (single isomer, unassigned) [ASAP-0013255] | 26 (≈ 11.5 µg/mL) | 1.22 | > 20 | 72.17 | 6.652 | 1.33 | > 20 | 115.0 | 16.0 | 14.6 | 101.0 | 81.0 | 27.0 | 20.7 | 96.0 | > 20 | > 20.0 | 92.424 | 38.485 | 4.4 | perc_recovery_a_to_b_mean ([2]; mean): 51.1%
CC(C)[C@@H](Nc1ncnc2[nH]c(-c3cncc(S(C)(=O)=O)c3)cc12)c1ccc2c(c1)S(=O)(=O)CCC2 [ASAP-0012320] | 31 (≈ 16.3 µg/mL) |  | > 20 | 119.816 | 96.629 | > 20 | > 20 | 635.0 | 1.0 | 2.6 | 104.0 | 272.0 | 1.0 | 6.1 | 112.0 | > 20 | > 20.0 | 98.548 | 93.918 | 3.1 | papp_a_to_b_mean ([2]; no inhibitor): 0.491 ×10⁻⁶ cm/s; perc_recovery_a_to_b_mean ([2]; no inhibitor): 66.6%
